Results reported in patent US12350259B2, “Methods of treating migraine” (Allergan Pharmaceuticals International Limited, priority 2021, dated 2025).
Read-outs that look alike come from different tables or passages of the source.

Experiments:
[1] = Atogepant-topiramate interaction study, cohort 1: atogepant steady-state PK; format: in vivo, human; conditions: for AUC / Cmax / Tmax: both sexes, human, plasma; for Tmax: read-out: Tmax,ss (median)
Experimental: The duration of the study was 25 days (±2 days), which included day −1 through the follow-up visit and excluded the screening period. The screening period was up to 21 days before day 1 and the intervention period was a total of 19 days, at which point the end of dosing visit was conducted. […] Clinical laboratory tests were performed at the follow-up visit, which was conducted on day 24 (7 [±2] days after the last dose of study medication. […] The primary endpoints were area under the plasma concentration-time curve during dosing interval at steady state (AUC0-tau,ss) and maximum plasma drug concentration at steady state (Cmax,ss) of atogepant and topiramate when coadministered and when administered alone. Additional PK parameters included time of maximum plasma drug concentration at steady state (Tmax,ss), average plasma drug concentration at steady state (Cavg,ss), and minimum plasma drug concentration at steady state (Cmin,ss) of topiramate and atogepant when coadministered and when administered alone.

[2] = Hepatic impairment study: safety and tolerability; format: in vivo, human; conditions: single 60 mg dose, all hepatic function groups
Experimental: A multicenter, non-randomized, open-label, parallel-group, single-dose study was carried out to evaluate the PK, safety, and tolerability profiles of atogepant in participants with impaired hepatic function and matched healthy participants with normal hepatic function after a single 60-mg oral dose of atogepant. The primary outcome measures were PK parameters of atogepant derived from plasma concentrations. Safety measures were AEs, clinical laboratory determinations, vital sign parameters, electrocardiographic results, and physical examination findings.

[3] = Hepatic impairment study: atogepant plasma PK; format: in vivo, human; conditions: for AUC(0-t) / AUC(0-inf) / Cmax / Tmax / half-life / Vd/F: human, plasma, 60 mg; for Vd/F: read-out: Vz/F
Experimental: A multicenter, non-randomized, open-label, parallel-group, single-dose study was carried out to evaluate the PK, safety, and tolerability profiles of atogepant in participants with impaired hepatic function and matched healthy participants with normal hepatic function after a single 60-mg oral dose of atogepant. The primary outcome measures were PK parameters of atogepant derived from plasma concentrations. Safety measures were AEs, clinical laboratory determinations, vital sign parameters, electrocardiographic results, and physical examination findings. […] PK blood samples were collected for up to 72 hours after dose administration. The total duration of study participation for each participant was 5 days (Day −1 to Day 4), excluding the screening visit. […] Participants with moderate hepatic impairment were enrolled after 4 participants with mild hepatic impairment completed the study; participants with severe hepatic impairment were enrolled after 4 participants with moderate hepatic impairment completed the study. Participants with normal hepatic function were recruited after all patients with hepatic impairment were enrolled in the study. The safety and tolerability of atogepant was established in each group before the subsequent group was enrolled. Participants were enrolled into four groups: Group I (Mild Hepatic Impairment); Group II (Moderate Hepatic Impairment); Group III (Severe Hepatic Impairment); and Group IV (Normal Hepatic Impairment). Participants with normal hepatic function were recruited after the participants with hepatic impairment were enrolled in the study so that participants could be matched as closely as possible by age range, weight range, and gender among groups. Participants were matched specifically according to rage range, not exceeding 5 years between the means of the normal group and the 3 impaired hepatic function groups combined; weight range, which deviated <20% between the means of the normal group and the 3 impaired hepatic function groups combined; and gender, as much as possible to match the ratio of the normal group to the 3 impaired hepatic function groups combined. Participants received a single, oral, 60 mg tablet of atogepant. Each participant received only one dose of the study intervention. Participants received the atogepant tablet with 240 mL of water at the study center under fasted conditions. Following dose administration, participants continued their fast and remained seated upright and awake for 4 hours. Sampling for atogepant plasma concentrations was done starting on Day 1 at 0 hour (predose) and at 0.5, 1, 1.5, 2, 3, 4, 6, 8, 12, 16, 24, 36, 48, and 72 hours post dose.

OATP1B3 = OATP1B3 (Homo sapiens, UniProt Q9NPD5); assay: Transporter substrate; format: in vitro ADME
[4] = atogepant 60 mg QD + topiramate 100 mg BID, day 17
[5] = atogepant 60 mg QD alone, day 7
[6] = po, mild hepatic impairment, single 60 mg oral dose
[7] = po, moderate hepatic impairment, single 60 mg oral dose
[8] = po, normal hepatic function, single 60 mg oral dose
[9] = po, severe hepatic impairment, single 60 mg oral dose
[10] = mild hepatic impairment vs normal hepatic function
[11] = mild hepatic impairment, single 60 mg oral dose
[12] = moderate hepatic impairment vs normal hepatic function
[13] = moderate hepatic impairment, single 60 mg oral dose
[14] = normal hepatic function, single 60 mg oral dose
[15] = severe hepatic impairment vs normal hepatic function
[16] = severe hepatic impairment, single 60 mg oral dose

Chain of OATP1B3 (Q9NPD5 whole entry): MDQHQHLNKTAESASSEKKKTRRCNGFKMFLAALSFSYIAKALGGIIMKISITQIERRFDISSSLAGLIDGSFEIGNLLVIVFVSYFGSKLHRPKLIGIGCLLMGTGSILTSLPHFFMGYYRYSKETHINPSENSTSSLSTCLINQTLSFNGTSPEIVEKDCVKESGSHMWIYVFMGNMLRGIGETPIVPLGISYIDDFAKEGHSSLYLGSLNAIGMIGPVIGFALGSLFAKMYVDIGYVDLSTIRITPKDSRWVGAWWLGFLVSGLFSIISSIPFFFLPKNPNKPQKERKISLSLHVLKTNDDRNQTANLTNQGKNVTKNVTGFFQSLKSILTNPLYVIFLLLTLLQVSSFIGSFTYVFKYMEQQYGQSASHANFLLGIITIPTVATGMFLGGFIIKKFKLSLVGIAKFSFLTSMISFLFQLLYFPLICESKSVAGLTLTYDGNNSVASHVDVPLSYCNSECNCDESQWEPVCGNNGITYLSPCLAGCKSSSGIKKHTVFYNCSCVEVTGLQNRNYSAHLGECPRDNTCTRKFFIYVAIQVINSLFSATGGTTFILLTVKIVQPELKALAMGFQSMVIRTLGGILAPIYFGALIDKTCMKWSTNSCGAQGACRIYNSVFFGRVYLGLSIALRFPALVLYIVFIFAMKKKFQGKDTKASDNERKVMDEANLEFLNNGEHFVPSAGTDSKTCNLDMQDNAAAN

In the case of `C[C@@H]1[C@H](c2c(F)ccc(F)c2F)C[C@H](NC(=O)c2cnc3c(c2)C[C@@]2(C3)C(=O)Nc3ncccc32)C(=O)N1CC(F)(F)F` [atogepant, (3′S)-N-[(3S,5S,6R)-6-methyl-2-oxo-1-(2,2,2-trifluoroethyl)-5-(2,3,6-trifluorophenyl)piperidin-3-yl]-2′-oxo-1′,2′,5,7-tetrahydrospiro[cyclopenta[b]pyridine-6,3′-pyrrolo[2,3-b]pyridine]-3-carboxamide], the “Cavg,ss” value [1, 4] is reported as 0.0958 µg/mL, the “Cmin,ss” value [1, 4] is reported as 0.0063 µg/mL and the “Cavg,ss” value [1, 5] is reported as 0.1256 µg/mL. The “Cmin,ss” value [1, 5] was 0.0102 µg/mL, the AUC ([1]; 60 mg, Atogepant Alone, read-out: AUC0-tau,ss Geometric LSM) was 2.72 µg·h/mL and the Cmax ([1]; 60 mg, Atogepant Alone, read-out: Cmax,ss Geometric LSM) was 0.535 µg/mL. The AUC ([1]; 60 mg, atogepant 60 mg QD alone, day 7, read-out: AUC0-tau,ss) was 3.02 µg·h/mL, the Cmax ([1]; 60 mg, atogepant 60 mg QD alone, day 7, read-out: Cmax,ss) was 0.626 µg/mL and the AUC ([1]; Atogepant and Topiramate, read-out: AUC0-tau,ss Geometric LSM) was 2.03 µg·h/mL. The Cmax ([1]; Atogepant and Topiramate, read-out: Cmax,ss Geometric LSM) was 0.406 µg/mL, the AUC ([1]; atogepant 60 mg QD + topiramate 100 mg BID, day 17, read-out: AUC0-tau,ss) was 2.3 µg·h/mL and the Cmax ([1]; atogepant 60 mg QD + topiramate 100 mg BID, day 17, read-out: Cmax,ss) was 0.491 µg/mL. For the same compound, the Tmax [1, 4] was 2 h, the Tmax [1, 5] was 2 h and the “reduction of atogepant AUC0-tau,ss” value ([1]; coadministered with topiramate) was 25%. The “reduction of atogepant Cmax,ss” value ([1]; coadministered with topiramate) was 24%, the tolerability [2] was “well tolerated” and the AUC(0-t) ([3]; oral, mild hepatic impairment, read-out: AUC0-t Geometric Least Squares Mean, Test) was 3.25 µg·h/mL. It also gave an AUC(0-inf) ([3]; oral, mild hepatic impairment, read-out: AUC0-∞ Geometric Least Squares Mean, Test) of 3.27 µg·h/mL, a Cmax ([3]; oral, mild hepatic impairment, read-out: Cmax Geometric Least Squares Mean, Test) of 0.587 µg/mL and an AUC(0-t) ([3]; oral, moderate hepatic impairment, read-out: AUC0-t Geometric Least Squares Mean, Test) of 2.98 µg·h/mL. The AUC(0-inf) ([3]; oral, moderate hepatic impairment, read-out: AUC0-∞ Geometric Least Squares Mean, Test) was 3.03 µg·h/mL, the Cmax ([3]; oral, moderate hepatic impairment, read-out: Cmax Geometric Least Squares Mean, Test) was 0.475 µg/mL and the AUC(0-t) ([3]; oral, normal hepatic function, read-out: AUC0-t Geometric Least Squares Mean, Reference) was 2.61 µg·h/mL. For the same compound, the AUC(0-inf) ([3]; oral, normal hepatic function, read-out: AUC0-∞ Geometric Least Squares Mean, Reference) was 2.63 µg·h/mL, the Cmax ([3]; oral, normal hepatic function, read-out: Cmax Geometric Least Squares Mean, Reference) was 0.539 µg/mL and the AUC(0-t) ([3]; oral, severe hepatic impairment, read-out: AUC0-t Geometric Least Squares Mean, Test) was 3.6 µg·h/mL. The AUC(0-inf) ([3]; oral, severe hepatic impairment, read-out: AUC0-∞ Geometric Least Squares Mean, Test) was 3.63 µg·h/mL, the Cmax ([3]; oral, severe hepatic impairment, read-out: Cmax Geometric Least Squares Mean, Test) was 0.515 µg/mL and the Tmax ([3]; po, mild hepatic impairment vs normal hepatic function, read-out: difference in median Tmax) was 0 h. It also gave a half-life [3, 6] of 8.7 ± 4.06 h, an AUC(0-t) ([3]; po, mild hepatic impairment, single 60 mg oral dose, read-out: AUC0-t) of 3.47 ± 1.42 µg·h/mL and an AUC(0-inf) ([3]; po, mild hepatic impairment, single 60 mg oral dose, read-out: AUC0-∞) of 3.5 ± 1.43 µg·h/mL. It also gave a Cmax ([3]; po, mild hepatic impairment, single 60 mg oral dose, read-out: Cmax) of 0.666 ± 0.372 µg/mL, a Tmax ([3]; po, mild hepatic impairment, single 60 mg oral dose, read-out: Tmax, median (range)) of 1.76 h and a Vd/F [3, 6] of 249 ± 161 L. It also gave a Tmax ([3]; po, moderate hepatic impairment vs normal hepatic function, read-out: difference in median Tmax) of 0.25 h, a half-life [3, 7] of 11.9 ± 7.6 h and an AUC(0-t) ([3]; po, moderate hepatic impairment, single 60 mg oral dose, read-out: AUC0-t) of 3.27 ± 1.69 µg·h/mL. For the same compound, the AUC(0-inf) ([3]; po, moderate hepatic impairment, single 60 mg oral dose, read-out: AUC0-∞) was 3.31 ± 1.68 µg·h/mL, the Cmax ([3]; po, moderate hepatic impairment, single 60 mg oral dose, read-out: Cmax) was 0.529 ± 0.227 µg/mL and the Tmax ([3]; po, moderate hepatic impairment, single 60 mg oral dose, read-out: Tmax, median (range)) was 1.5 h. It also gave a Vd/F [3, 7] of 404 ± 406 L, a half-life [3, 8] of 9.4 ± 3.24 h and an AUC(0-t) ([3]; po, normal hepatic function, single 60 mg oral dose, read-out: AUC0-t) of 2.76 ± 0.919 µg·h/mL. It also gave an AUC(0-inf) ([3]; po, normal hepatic function, single 60 mg oral dose, read-out: AUC0-∞) of 2.78 ± 0.924 µg·h/mL, a Cmax ([3]; po, normal hepatic function, single 60 mg oral dose, read-out: Cmax) of 0.589 ± 0.248 µg/mL and a Tmax ([3]; po, normal hepatic function, single 60 mg oral dose, read-out: Tmax, median (range)) of 1.75 h. For the same compound, the Vd/F [3, 8] was 301 ± 77 L, the Tmax ([3]; po, severe hepatic impairment vs normal hepatic function, read-out: difference in median Tmax) was 0.75 h and the half-life [3, 9] was 7.54 ± 2.95 h. It also gave an AUC(0-t) ([3]; po, severe hepatic impairment, single 60 mg oral dose, read-out: AUC0-t) of 3.8 ± 1.4 µg·h/mL, an AUC(0-inf) ([3]; po, severe hepatic impairment, single 60 mg oral dose, read-out: AUC0-∞) of 3.84 ± 1.44 µg·h/mL and a Cmax ([3]; po, severe hepatic impairment, single 60 mg oral dose, read-out: Cmax) of 0.525 ± 0.197 µg/mL. For the same compound, the Tmax ([3]; po, severe hepatic impairment, single 60 mg oral dose, read-out: Tmax, median (range)) was 1 h, the Vd/F [3, 9] was 177 ± 47.5 L and the “higher AUC (total atogepant exposure increase)” value ([3]; mild hepatic impairment (Child-Pugh Class A) vs normal hepatic function) was 24%. The “AUC0-t Ratio of Geometric Means Test/Reference” value [3, 10] was 124.40, the “AUC0-∞ Ratio of Geometric Means Test/Reference” value [3, 10] was 124.31 and the “Cmax Ratio of Geometric Means Test/Reference” value [3, 10] was 108.97. For the same compound, the “change in maximum plasma concentration” value [3, 10] was “+9%”, the “higher Cmax” value [3, 10] was 9% and the AUC % [3, 11] was 0.73 ± 0.42%. The CL/F [3, 11] was 19.42 ± 6.60 L/h, the λz [3, 11] was 0.0906 ± 0.0300 h⁻¹ and the “change in the PK of atogepant” value ([3]; mild, moderate, or severe hepatic impairment) was “no clinically relevant change”. The “higher AUC (total atogepant exposure increase)” value ([3]; moderate hepatic impairment (Child-Pugh Class B) vs normal hepatic function) was 15%, the “AUC0-t Ratio of Geometric Means Test/Reference” value [3, 12] was 113.96 and the “AUC0-∞ Ratio of Geometric Means Test/Reference” value [3, 12] was 115.00. The “Cmax Ratio of Geometric Means Test/Reference” value [3, 12] was 88.17, the “change in maximum plasma concentration” value [3, 12] was −12% and the “lower Cmax” value [3, 12] was 12%. For the same compound, the AUC % [3, 13] was 1.70 ± 1.44%, the CL/F [3, 13] was 21.33 ± 8.06 L/h and the λz [3, 13] was 0.0781 ± 0.0431 h⁻¹. For the same compound, the AUC % [3, 14] was 0.81 ± 0.23%, the CL/F [3, 14] was 24.20 ± 9.42 L/h and the λz [3, 14] was 0.0819 ± 0.0289 h⁻¹. The “increase in AUC (total atogepant exposure increase)” value ([3]; severe hepatic impairment (Child-Pugh Class C) vs normal hepatic function) was 38%, the “AUC0-t Ratio of Geometric Means Test/Reference” value [3, 15] was 137.88 and the “AUC0-∞ Ratio of Geometric Means Test/Reference” value [3, 15] was 137.97. The “Cmax Ratio of Geometric Means Test/Reference” value [3, 15] was 95.71, the “change in maximum plasma concentration” value [3, 15] was −4% and the “decrease in Cmax” value [3, 15] was 4%. For the same compound, the AUC % [3, 16] was 0.87 ± 0.65%, the CL/F [3, 16] was 17.33 ± 5.40 L/h and the λz [3, 16] was 0.0998 ± 0.0242 h⁻¹. For the same compound, the “substrate of OATP1B3” value (OATP1B3) was “substrate”.
